Measurements: ChEMBL document CHEMBL1128066, “Synthesis and antiviral activity of dihydroxycyclohexyl pyrimidine and purine carbocyclic nucleosides” (Bioorg Med Chem Lett, 1995)
pEC50, pIC50: −log10 of the molar value.

What was measured:
Type in all cases: functional, cell-based
PEU [1] = experiment: Compound was tested for its overt cytotoxicity in virus free PEU cell culture; conditions: Homo sapiens
PEU [2] = experiment: Antiviral activity was evaluated by the plaque reduction method against Cytomegalovirus (CMV) in PEU cells; conditions: Homo sapiens
Vero [3] = experiment: Antiviral activity was evaluated by the plaque reduction method against Herpes virus 1 (HSV-1) in Vero cells; conditions: Chlorocebus sabaeus
Vero [4] = experiment: Antiviral activity was evaluated by the plaque reduction method against Herpes virus 2 (HSV-2) in Vero cells; conditions: Chlorocebus sabaeus

Compound	pIC50 (PEU [1])	pEC50 (PEU [2])	pEC50 (Vero [3])	pEC50 (Vero [4])
Nc1nc(O)c2ncn(C3CCC(OCc4ccccc4)CC3O)c2n1 (configuration not stated)	< 3.60	3.85	4.67	4.66
Nc1ncnc2c1ncn2C1CCC(OCc2ccccc2)CC1O (configuration not stated)	< 3.60	3.83	4.77	4.79
Nc1ncnc2c1ncn2C1CCC(O)CC1O (configuration not stated)	< 3.60	3.70	4.55	4.52
O=c1ccn(C2CCC(O)CC2O)c(=O)[nH]1 (configuration not stated)	< 3.60	5.00	6.01	6.01
O=c1ccn([C@@H]2CC[C@H](OCc3ccccc3)C[C@H]2O)c(=O)[nH]1	< 3.60	5.00	3.80	3.80
Nc1nc(O)c2ncn(C3CCC(O)CC3O)c2n1 (configuration not stated)	< 3.60	3.73	3.73	3.73
O=c1ccn(C2CC(O)CCC2O)c(=O)[nH]1 (configuration not stated)	< 3.60	6.01	5.00	6.01
O=c1ccn([C@@H]2C[C@@H](OCc3ccccc3)CC[C@H]2O)c(=O)[nH]1	< 3.60	5.00	5.00	5.00
